Molecular target: T1, mGluR^2 (Homo sapiens, UniProt Q14416)
T1 construct: expressed in transfected cells
Assay: [3H] LY341495 binding displacement at mGluR2
Conditions: cells expressing human mGluR subtypes, radioligand [3H] LY341495, read-out: Ki, reversal of [3H] LY341495 binding
Text: (D. D. Schoepp, et al., Neuropharmacol., 1996, 35, 1661–1672 and 1997, 36, 1–11).
(LY341495 is described in Ornstein et al., J. Med. Chem., 1998, 41, 346–357 and J. Med. Chem., 1998, 41, 358 to 378).

T1 sequence (Q14416 19-872): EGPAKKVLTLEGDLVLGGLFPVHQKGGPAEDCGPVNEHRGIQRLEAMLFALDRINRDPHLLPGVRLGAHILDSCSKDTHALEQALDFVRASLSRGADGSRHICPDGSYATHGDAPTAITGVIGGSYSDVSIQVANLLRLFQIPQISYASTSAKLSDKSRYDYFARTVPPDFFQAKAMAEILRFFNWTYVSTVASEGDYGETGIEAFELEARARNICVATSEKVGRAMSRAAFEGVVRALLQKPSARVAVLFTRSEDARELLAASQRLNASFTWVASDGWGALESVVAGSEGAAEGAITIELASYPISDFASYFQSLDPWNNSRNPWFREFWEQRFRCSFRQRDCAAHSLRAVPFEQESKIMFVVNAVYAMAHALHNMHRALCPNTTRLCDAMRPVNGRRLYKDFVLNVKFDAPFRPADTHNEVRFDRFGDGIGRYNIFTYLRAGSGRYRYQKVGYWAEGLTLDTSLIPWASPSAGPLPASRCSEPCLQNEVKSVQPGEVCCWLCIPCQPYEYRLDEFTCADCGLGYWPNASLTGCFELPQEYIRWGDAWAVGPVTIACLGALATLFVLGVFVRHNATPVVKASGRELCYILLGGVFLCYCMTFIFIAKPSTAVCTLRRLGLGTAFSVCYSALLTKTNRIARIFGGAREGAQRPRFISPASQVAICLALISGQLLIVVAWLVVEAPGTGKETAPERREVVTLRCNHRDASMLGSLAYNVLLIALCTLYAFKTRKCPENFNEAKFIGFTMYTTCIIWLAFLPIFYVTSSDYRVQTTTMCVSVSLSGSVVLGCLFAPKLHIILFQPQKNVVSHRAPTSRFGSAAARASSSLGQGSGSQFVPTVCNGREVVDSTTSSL

Ki: 285 nM
SMILES: N[C@@H](C(=O)O)[C@@H]1[C@H](COC(=O)Nc2ccccc2)[C@H]1C(=O)O (racemic) [Example 1, (2SR,1′SR,2′RS,3′RS)-2-(3′-phenylcarbamoyloxymethyl-2′-carboxycyclopropyl)glycine]
